This note sets out measurements from ChEMBL document CHEMBL1201862, “PubChem BioAssay data set” (2004).

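48-hour exposure; five concentrations; linearly interpolated endpoints. At the GI50, growth is halved.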 The source made the active and inactive calls. Cut-off read from the data, not from the text of the source: active = GI50 up to about 1.1 µM and inactive = higher. A value given as a limit tells only on which side of the number the result lay.

Among the test systems are HCT-15; CCRF-CEM; NCI/ADR-RES; HT-29; SK-MEL-5; DU-145; NCI-H23; SW-620; IGROV-1; OVCAR-5; COLO 205; OVCAR-8; HL-60; ACHN; UACC-257; MOLT-4; CAKI-1; M14; HOP-92.
Experiment in all cases: NCI tumour cell line growth inhibition, 48 h

Turning to `CC(O[Si](C)(C)C(C)(C)C)[C@H](NC(=O)OCC(Cl)(Cl)Cl)C(=O)O` (stereo not given in full), the GI50 in the experiment on HCT-15 is greater than 100 µM; with CCRF-CEM, > 100 µM (inactive); in the experiment with NCI/ADR-RES it was > 100 µM (inactive); in the experiment on HT-29, > 100 µM (inactive); in the experiment on SK-MEL-5, > 100 µM (inactive); in the experiment on DU-145, > 100 µM (inactive). The GI50 is 95.3 µM (inactive) with NCI-H23; > 100 µM (inactive) with SW-620; > 100 µM (inactive) in the experiment on IGROV-1; > 100 µM (inactive) in the experiment with OVCAR-5; > 100 µM (inactive) in the experiment on COLO 205; > 100 µM (inactive) in the experiment on OVCAR-8. The GI50 was > 100 µM (inactive) with HL-60, 55.1 µM (inactive) with ACHN, > 100 µM (inactive) in the experiment on UACC-257 and > 100 µM (inactive) in the experiment with MOLT-4.

As for `CC1(C)Oc2ccc3c(=O)cc(-c4ccccc4)oc3c2C1C(=O)O` (stereo not given), the GI50 was greater than 100 µM in the experiment with HCT-15; > 100 µM (inactive) with CCRF-CEM; > 100 µM (inactive) in the experiment with NCI/ADR-RES; > 100 µM (inactive) with HT-29; > 100 µM (inactive) in the experiment on SK-MEL-5; > 100 µM (inactive) in the experiment with DU-145. For the same compound, the GI50 in the experiment with CAKI-1, in the experiment on NCI-H23, in the experiment on IGROV-1, in the experiment on OVCAR-5, in the experiment with M14 and in the experiment with COLO 205 was > 100 µM (inactive) each time. In addition, the GI50 in the experiment on OVCAR-8, in the experiment with HL-60, in the experiment on UACC-257 and with MOLT-4 was > 100 µM (inactive) throughout.

`CC[C@H](C)[C@H](NC(=O)[C@H](Cc1ccc(O)cc1)NCC(F)(F)F)C(=O)OC(C)(C)C`: the GI50 with HCT-15 was 10.5 µM; with NCI/ADR-RES it was 11.7 µM (inactive); with HT-29, 7.6 µM (inactive); with SK-MEL-5, 7.41 µM (inactive); in the experiment with CAKI-1 it was 7.01 µM (inactive); in the experiment with NCI-H23, 8.59 µM (inactive). Moreover, the GI50 is 9.82 µM (inactive) in the experiment on SW-620; 7.5 µM (inactive) with IGROV-1; 8.63 µM (inactive) with OVCAR-5; 7.03 µM (inactive) with M14; 8.99 µM (inactive) in the experiment with HOP-92; 8.05 µM (inactive) in the experiment with COLO 205. The GI50 with OVCAR-8 was 12.4 µM (inactive); with ACHN it was 7.33 µM (inactive); in the experiment with UACC-257, 6.82 µM (inactive); in the experiment on MOLT-4, 6.35 µM (inactive).

As to `CCOP(=O)(/C=C\n1ccc(=O)[nH]c1=O)OCC`, the GI50 is greater than 100 µM with HCT-15; > 100 µM (inactive) in the experiment on CCRF-CEM; > 100 µM (inactive) with NCI/ADR-RES; > 100 µM (inactive) in the experiment on HT-29; > 100 µM (inactive) in the experiment with SK-MEL-5; > 100 µM (inactive) in the experiment with DU-145. Moreover, the GI50 in the experiment with CAKI-1, with NCI-H23, with SW-620, with IGROV-1, in the experiment with OVCAR-5 and in the experiment on M14 was > 100 µM (inactive) in each case. Besides, the GI50 in the experiment with COLO 205, in the experiment on OVCAR-8, with HL-60, in the experiment on ACHN, in the experiment with UACC-257 and in the experiment on MOLT-4 was > 100 µM (inactive) throughout.

On to `O=C1c2ccccc2-c2cc3ccccc3c(=O)n21`, for which the GI50 in the experiment with HCT-15 is greater than 100 µM; in the experiment with CCRF-CEM, > 100 µM (inactive); in the experiment with NCI/ADR-RES, > 100 µM (inactive); in the experiment on HT-29 it was > 100 µM (inactive); with SK-MEL-5 it was > 100 µM (inactive); with DU-145, > 100 µM (inactive). The GI50 is > 100 µM (inactive) with NCI-H23; > 100 µM (inactive) with SW-620; > 100 µM (inactive) in the experiment on IGROV-1; > 100 µM (inactive) in the experiment on OVCAR-5; 97.3 µM (inactive) in the experiment with M14; > 100 µM (inactive) in the experiment on COLO 205. In addition, the GI50 in the experiment with OVCAR-8, in the experiment on ACHN and in the experiment with UACC-257 was > 100 µM (inactive) in each case.

As to `Clc1nc(Cl)c(Cl)c(-c2ccccc2)n1`, the GI50 is 11.4 µM with HCT-15; 0.74 µM (active) in the experiment with CCRF-CEM; 5.62 µM (inactive) in the experiment with NCI/ADR-RES; 1.68 µM (inactive) in the experiment on HT-29; 2.43 µM (inactive) with SK-MEL-5; 15.8 µM (inactive) with NCI-H23. Moreover, the GI50 with SW-620 is 1.94 µM (inactive); in the experiment with IGROV-1 it was 15.4 µM (inactive); in the experiment on OVCAR-5 it was 20.3 µM (inactive); in the experiment on M14, 1.77 µM (inactive); in the experiment with OVCAR-8, 10.4 µM (inactive); with HL-60, > 100 µM (inactive). In addition, the GI50 with ACHN was 17.4 µM (inactive); in the experiment on UACC-257 it was 20.5 µM (inactive); in the experiment with MOLT-4, 1.58 µM (inactive).

For the compound `CCOC(=O)/C(C(=O)Nc1cccc(C(F)(F)F)c1)=C(/N)N1CCCC1`, the GI50 in the experiment on HCT-15 was greater than 100 µM; in the experiment on CCRF-CEM it was > 100 µM (inactive); in the experiment with NCI/ADR-RES, > 100 µM (inactive); with HT-29 it was > 100 µM (inactive); in the experiment on DU-145, > 100 µM (inactive); in the experiment on CAKI-1, > 100 µM (inactive). Moreover, the GI50 in the experiment with NCI-H23, with SW-620, with IGROV-1, in the experiment on OVCAR-5, with M14 and in the experiment on COLO 205 was > 100 µM (inactive) in each case. In addition, the GI50 in the experiment on OVCAR-8 was 38 µM (inactive); in the experiment with HL-60 it was > 100 µM (inactive); in the experiment on ACHN, > 100 µM (inactive); with UACC-257, > 100 µM (inactive); with MOLT-4 it was > 100 µM (inactive).

With `O=C1/C(=C/c2ccccc2)CCc2ccccc21`, the GI50 with HCT-15 is 25.6 µM; with CCRF-CEM it was 4.02 µM (inactive); in the experiment on NCI/ADR-RES, 28.4 µM (inactive); in the experiment on HT-29, 16.6 µM (inactive); in the experiment on SK-MEL-5, 17.7 µM (inactive); with DU-145, 16.2 µM (inactive). For the same compound, the GI50 in the experiment with CAKI-1 was 17.7 µM (inactive); in the experiment on NCI-H23, 19.6 µM (inactive); in the experiment on SW-620 it was 13.9 µM (inactive); in the experiment on IGROV-1 it was 21.4 µM (inactive); in the experiment with OVCAR-5 it was 16.8 µM (inactive); in the experiment with M14, 20.1 µM (inactive). Besides, the GI50 is 19.6 µM (inactive) with COLO 205; 25.6 µM (inactive) with OVCAR-8; 16.9 µM (inactive) with HL-60; 17.2 µM (inactive) in the experiment on ACHN; 16.1 µM (inactive) in the experiment with UACC-257; 12.2 µM (inactive) in the experiment on MOLT-4.

Regarding `Cc1ccc2nc(-c3ccc(N)c(I)c3)sc2c1`, the GI50 is 6.11 µM in the experiment on HCT-15; 6.21 µM (inactive) in the experiment with CCRF-CEM; 72.3 µM (inactive) in the experiment with NCI/ADR-RES; 18.9 µM (inactive) with HT-29; 29.4 µM (inactive) with SK-MEL-5; > 100 µM (inactive) with CAKI-1. For the same compound, the GI50 in the experiment on SW-620 was 20.9 µM (inactive); in the experiment with OVCAR-5 it was 35.9 µM (inactive); in the experiment with M14, 37.1 µM (inactive); in the experiment on HOP-92, 20.1 µM (inactive); with COLO 205 it was 17.1 µM (inactive); in the experiment with OVCAR-8, 67.5 µM (inactive). For the same compound, the GI50 in the experiment with HL-60 is 12.9 µM (inactive); in the experiment with ACHN, 20.8 µM (inactive); with UACC-257 it was 23.7 µM (inactive); in the experiment with MOLT-4, 10.4 µM (inactive).

On to `CC[C@H](C)C(=O)O[C@H]1CCC=C2C=C[C@H](C)[C@H](CC[C@@H]3C[C@@H](O)CC(=O)O3)[C@H]21` [MEVASTATIN], for which the GI50 with HCT-15 was 4.06 µM; with NCI/ADR-RES, 10.3 µM (inactive); in the experiment with HT-29, 36.7 µM (inactive); in the experiment with SK-MEL-5 it was 20.6 µM (inactive); with DU-145 it was > 92.3 µM (inactive); in the experiment with CAKI-1, 3.37 µM (inactive). In addition, the GI50 in the experiment on NCI-H23 is 20.1 µM (inactive); in the experiment on SW-620, 24.7 µM (inactive); in the experiment on IGROV-1, 4.43 µM (inactive); in the experiment with OVCAR-5, 31.6 µM (inactive); with M14, 10 µM (inactive); with COLO 205, 12.9 µM (inactive). For the same compound, the GI50 in the experiment with OVCAR-8 was 8.26 µM (inactive); with HL-60 it was 46.6 µM (inactive); in the experiment with ACHN it was 3.88 µM (inactive); in the experiment on UACC-257, 50.4 µM (inactive); in the experiment on MOLT-4, > 47.8 µM (inactive).

Turning to `CCOC(=O)NC(=O)c1cn(CCN2CCN(C(=O)CCCCCCCCCCNc3ncnc4c3ncn4C3OC(CO)C(O)C3O)CC2)c(=O)[nH]c1=O` (stereo not given), the GI50 in the experiment with HCT-15 is greater than 100 µM; in the experiment on CCRF-CEM, > 100 µM (inactive); in the experiment with HT-29 it was > 100 µM (inactive); in the experiment with SK-MEL-5, > 100 µM (inactive); with CAKI-1, > 100 µM (inactive); in the experiment with NCI-H23, > 100 µM (inactive). In addition, the GI50 was > 100 µM (inactive) with SW-620; > 100 µM (inactive) in the experiment on IGROV-1; > 100 µM (inactive) with M14; 70.3 µM (inactive) in the experiment with HOP-92; > 100 µM (inactive) with COLO 205; > 100 µM (inactive) in the experiment on OVCAR-8. Further, the GI50 in the experiment on HL-60, in the experiment on ACHN, in the experiment on UACC-257 and in the experiment on MOLT-4 was > 100 µM (inactive) each time.

Regarding `CCN(CC)CCNc1n[n+]([O-])c2ccccc2[n+]1[O-]`, the GI50 in the experiment with HCT-15 is 3.92 µM; with CCRF-CEM it was 3.91 µM (inactive); in the experiment on NCI/ADR-RES, 22.9 µM (inactive); with HT-29, 5.94 µM (inactive); in the experiment on SK-MEL-5, 1.59 µM (inactive); with DU-145, 12.1 µM (inactive). Moreover, the GI50 is 12 µM (inactive) in the experiment with SW-620; 1.81 µM (inactive) with IGROV-1; 13.2 µM (inactive) with OVCAR-5; 6.7 µM (inactive) in the experiment with M14; 5.96 µM (inactive) in the experiment on COLO 205; 7.76 µM (inactive) in the experiment with OVCAR-8. In addition, the GI50 in the experiment with HL-60 was 1.85 µM (inactive); in the experiment on ACHN, 2.95 µM (inactive); in the experiment on MOLT-4, 2.02 µM (inactive).
